Reference: patent US20250320203A1, “4-(3H-PYRAZOLO[4,3-F]QUINOLIN-7-YL)-N-(2-(DIMETHYLAMINO)ETHYL)BENZAMIDE- OR HYDROXAMIC ACID COMPOUNDS, COMPOSITIONS, AND METHODS OF USE” (Purdue Research Foundation, priority 2022, published 2025)

Legend:
haspin = target: T1, haspin (Homo sapiens, UniProt Q8TF76); experiment: Haspin binding Kd (Eurofins); set-up: purchased Eurofins (contract research service)
T1 sequence (Q8TF76 1-798): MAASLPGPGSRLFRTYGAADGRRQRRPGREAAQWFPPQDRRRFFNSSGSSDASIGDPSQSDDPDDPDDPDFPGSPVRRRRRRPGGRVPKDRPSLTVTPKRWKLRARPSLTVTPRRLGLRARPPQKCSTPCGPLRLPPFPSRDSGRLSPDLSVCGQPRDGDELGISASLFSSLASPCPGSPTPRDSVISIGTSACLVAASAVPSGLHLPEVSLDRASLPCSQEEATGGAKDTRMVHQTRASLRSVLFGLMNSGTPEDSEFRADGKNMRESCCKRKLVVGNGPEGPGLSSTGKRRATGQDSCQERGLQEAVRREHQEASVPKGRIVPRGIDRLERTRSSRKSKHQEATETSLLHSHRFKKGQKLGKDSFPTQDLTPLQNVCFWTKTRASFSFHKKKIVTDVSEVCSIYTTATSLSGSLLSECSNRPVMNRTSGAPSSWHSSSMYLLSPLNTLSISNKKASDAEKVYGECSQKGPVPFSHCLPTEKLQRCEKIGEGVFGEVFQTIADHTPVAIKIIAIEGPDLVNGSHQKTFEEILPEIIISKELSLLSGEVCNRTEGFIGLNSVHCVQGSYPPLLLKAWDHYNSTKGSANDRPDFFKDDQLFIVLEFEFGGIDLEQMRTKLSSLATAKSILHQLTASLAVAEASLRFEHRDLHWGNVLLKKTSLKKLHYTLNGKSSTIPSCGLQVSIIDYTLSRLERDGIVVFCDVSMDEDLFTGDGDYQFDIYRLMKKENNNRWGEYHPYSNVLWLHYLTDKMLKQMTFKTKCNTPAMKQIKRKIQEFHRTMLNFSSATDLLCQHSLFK

DNA = DNA intercalation assay; details: doses from 1 mM to 10 nM
Method: FIG. 16 is a graph of data from a DNA intercalation assay. […] Data was fitted to a non-linear regression equation using GraphPad Prism 9.0 software (each data point represents the mean of triplicates).
To move compounds forward for further development, DNA intercalation assays were conducted to eliminate compounds with high affinity for DNA.

FLT3-ITD = target: T2, FLT3-ITD (Homo sapiens, UniProt P36888); experiment: FLT3-ITD enzyme inhibition, 10-dose IC50 (Reaction Biology); type: biochemical; details: 10 μM ATP
T2 sequence (P36888 1-993): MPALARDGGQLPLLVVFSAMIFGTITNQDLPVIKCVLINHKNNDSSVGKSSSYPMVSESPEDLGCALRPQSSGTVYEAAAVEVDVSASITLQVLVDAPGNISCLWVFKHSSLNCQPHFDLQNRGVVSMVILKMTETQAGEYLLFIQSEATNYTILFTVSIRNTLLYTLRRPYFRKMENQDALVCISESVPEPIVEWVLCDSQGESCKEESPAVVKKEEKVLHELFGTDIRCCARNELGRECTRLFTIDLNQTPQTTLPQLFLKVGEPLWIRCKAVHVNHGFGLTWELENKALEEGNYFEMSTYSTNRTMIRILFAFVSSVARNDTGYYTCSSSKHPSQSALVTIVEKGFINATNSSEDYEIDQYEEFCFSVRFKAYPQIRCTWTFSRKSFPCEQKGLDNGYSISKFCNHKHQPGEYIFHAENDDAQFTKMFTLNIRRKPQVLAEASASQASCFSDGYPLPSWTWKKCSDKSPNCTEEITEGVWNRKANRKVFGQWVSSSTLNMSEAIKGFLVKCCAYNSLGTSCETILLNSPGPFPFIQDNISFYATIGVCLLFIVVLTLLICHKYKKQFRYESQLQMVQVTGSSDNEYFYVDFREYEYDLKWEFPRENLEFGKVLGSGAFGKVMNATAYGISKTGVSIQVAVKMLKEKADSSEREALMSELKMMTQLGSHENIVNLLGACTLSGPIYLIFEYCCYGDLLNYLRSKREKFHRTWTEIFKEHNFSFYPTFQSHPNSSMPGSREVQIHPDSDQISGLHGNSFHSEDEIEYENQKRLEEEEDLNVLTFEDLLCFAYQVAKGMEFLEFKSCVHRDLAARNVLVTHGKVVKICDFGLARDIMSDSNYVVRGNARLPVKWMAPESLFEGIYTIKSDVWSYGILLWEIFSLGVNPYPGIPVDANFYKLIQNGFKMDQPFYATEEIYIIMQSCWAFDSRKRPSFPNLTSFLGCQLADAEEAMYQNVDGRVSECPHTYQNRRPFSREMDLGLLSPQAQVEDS

[1] = tested on: histone H3 (Thr3) phosphorylation by haspin; experiment: Western blot, histone H3 (Thr3) phosphorylation by haspin in Molm-14 cells; type: cell-based, human; details: 24 hours, HSK205 5, 20 or 100 nM, gilteritinib 100 nM
Method: Whether Compound HSK205 does indeed inhibit haspin in AML cells was then evaluated, and immunoblotting was performed to confirm inhibition of histone H3 (Thr3)phosphorylation by haspin (FIG. 13A). […] The samples were subsequently analyzed for the phosphorylation of histone H3 (Thr3).
Acute myeloid leukemia cells (Molm-14) were incubated with various concentrations of compound as specified. Cells were collected and lysed, and protein concentrations were quantified relative to BSA standards. After protein denaturation, proteins were separated via SDS-PAGE electrophoresis and transferred to NC membranes. After blocking, overnight incubation with specific primary antibodies, and room temperature incubation for 2 hours with peroxidase-conjugated secondary antibodies, peroxidase activity was detected with SuperSignal West Pico reagents (Thermo Scientific) using a CCD camera LAS-4000 (Fujifilm). Bands were normalized using housekeeping gene, Actin. Values reported represent the means of triplicates and error bars represent SD. All specific antibodies were purchased from Cell Signaling.

Molm-14 cells (FLT3-ITD) = experiment: AML cell line growth inhibition (CellTiter-Blue), 50 nM; type: cell-based; details: Homo sapiens, 50 nM inhibitor conc., means of triplicates, read-out: Percent Inhibition (%) Molm-14 growth
Method: With the amide kinase inhibitor library established, kinase inhibition and AML cell line (Molm-14, which harbors FLT3-ITD) growth inhibition were analyzed (Table 1). More specifically, Haspin and FLT3 inhibition were evaluated in-house via ADP Glo Kinase Assay (Promega, Madison, WI). […] Values reported are means of triplicates.
More specifically, cells were cultured to confluence in RPMI medium supplemented with 10% fetal bovine serum and 1× Penicillin-Streptomycin (Gibco™). Cells were plated at 5,000 cells/well in 96 well plates. After 24-hour incubation at 37° C. in a 5% CO2 incubator, compounds diluted in the same media were added to the indicated final concentration and allowed to incubate at 37° C. in a 5% CO2 incubator for 72 hours. Viability was determined using CellTiter-Blue® Cell Viability Assay (Promega, Madison, WI) with absorbance readings at 570 nm performed on a Cytation™ 5 Cell Imaging Multi-Mode Reader (BioTek) 3 hours after addition. Appropriate vehicle and cell-free controls were included. GI50 readings were confirmed by two scientists on two separate days.

Kd (haspin): 550 pM
DNA intercalation (DNA): did not intercalate into DNA
IC50 (FLT3-ITD): < 500 pM
SMILES: Cc1c[nH]c(CNC(=O)c2ccc(-c3nc4ccc5[nH]ncc5c4c4c3CCCC4)cc2)n1 [Compound HSK205]
phosphorylation of histone H3 (Thr3) [1]: effective in reducing phosphyorlation of histone H3 (Thr3)
inhibition at 0.05 µM (Molm-14 cells (FLT3-ITD)): 96%
